The values below come from US10086082B2, “Plant steroids and uses thereof” (DAVIDSON LOPEZ LLC, priority 2011, dated 2018).

This experiment deals with Caco-2 cells. Nature of the experiment: Gene expression profiling of Caco-2 cells treated with compounds (Illumina HT-12 arrays, Volcano plots). The experiment is classed as cell-based, human. The settings on record: gene array; for Interleukin-1, beta gene regulation: 24 hours exposure.

Protocol: Gene expression profiles were generated from 2.5 μM and 25 μM treatments of Caco-2 cells (ATCC).
All compounds were individually applied to Caco-2 cells (250,000/well). After RNA isolation of each treatment, the isolated RNAs were individually labeled as cDNA probes and applied to Illumina HT-12 array chips.
Key Genes Affected per Gene Class: Using the Inforsense Suite of Data Analysis tool (IDBS), a total of 36 Volcano plots were generated against 36 gene array assays (triplicate array assays per nontreatment and treatment of compounds). […] Genes were identified on both sides of the volcano plots (shaded in gray in FIG. 2) that were at a correlation coefficient of p<0.05.
The human colon adenocarcinoma cell line Caco-2 was cultured in Dulbecco's Modified Eagle's Medium (Sigma-Aldrich) with 4.5 g/l glucose, L-glutamine, NaHCO3 and pyridoxine HCl supplemented with 1% (vol/vol) nonessential amino acids, 1% Na-pyruvate, 1% penicillin/streptomycin, and 10% (vol/vol) heat inactivated fetal calf serum, all purchased from Gibco BRL. Cell cultures were transferred weekly by trypsinization and incubated at 37° C. in a humidified incubator containing 5% CO2. […] Cells were exposed to each compound, respectively, for 24 hours.
Total RNA was isolated according to the TRIzol manufacturer's instructions (Invitrogen). RNA quality was assessed with a 2100 Bioanalyzer (Agilent). RNA from pooled triplicates of the various cell treatments, all with an RNA integrity number >7, was further purified with Qiagen RNeasy columns. From 300 ng of total RNA, the Illumina TotalPrep RNA Amplification kit (Ambion) was used to generate amplified biotinylated cRNA after reverse transcription by the Eberwine procedure. cRNA (900 ng) was hybridized overnight to Illumina HT-12 BeadArrays, which were then washed and stained with streptavidin-Cy3 (Amersham-Pharmacia Biotech) according to the Illumina protocol. Arrays were scanned on a BeadArray Reader (Illumina).
Specific transcripts within the biotinylated cRNA were measured by fluorescent imaging after direct hybridization to HT-12 bead arrays, which contain 12 arrays per slide, each with an average of 15 beads for each of 48,803 probes measuring 37,846 annotated genes and additional transcripts. Raw measurements of the intensity of each bead were captured directly and processed as “bead-level” for the samples, as described below. For both treated and non-treated samples, measurements were processed as “probe-level” data by GenomeStudio software (Illumina). […]

On to `CC[C@H](/C=C/[C@@H](C)[C@H]1CC[C@H]2[C@@H]3CC=C4C[C@@H](OC(=O)CCC(=O)OCC(=O)[C@@]5(O)CC[C@H]6[C@@H]7CCC8=CC(=O)C=C[C@]8(C)[C@H]7[C@@H](O)C[C@@]65C)CC[C@]4(C)[C@H]3CC[C@]12C)C(C)C` [SE-24, Stigmasterol Prednisolone Succinate Diester], for which the “Interleukin-1, beta gene regulation” value is “up-regulated”; the “interleukin receptor and interleukins affected” value is recorded as “affected”; the “similarity of gene profile to prednisone” value is listed as “more similar gene profiles to prednisone”.
Regarding “Stigmasterol Triethyleneglycol Prednisolone Succinate [SE-22]”, the “Interleukin-1, beta gene regulation” value is “up-regulated”.
